The target in series [1] is T1, Sigma-1 receptor (SIGMAR1) (Homo sapiens, UniProt Q99720).
T1 construct: host or cells: in vivo PET scan
Particulars: quantitative PET scan; cited from earlier work.

Another series relates to SIGMAR1. Put plainly: SIGMAR1 levels in patients of the PDD-001 trial. The format is in vivo, human. As to conditions: use by PDD patients; rise associated with improved attention measures and reduced MDS-UPDRS total and Part III. Here is the method: The trial enrolled 132 adults, ages 50-85, with PDD, and was successfully concluded in September 2020. Participants, recruited at multiple sites in Spain and Australia, were randomly assigned to one of two doses groups (with an escalating ANAVEX 2-73 dose up to 30 or 50 mg oral capsules) or to a placebo, once daily for 14 weeks (see FIG. 1 for details). The trial's main goals were to assess the therapy's safety and changes in patients' cognitive function, measured using the cognitive drug research computerized assessment system—a test that looks at multiple cognitive skills, such as choice reaction time (choosing between similar objects), vigilance, and episodic memory (remembering new personal experiences or shared information). Secondary goals included changes in patients' motor abilities—assessed with the Movement Disorders Society Unified Parkinson's Disease Rating Scale (MDS-UPDRS) Part III—and sleep quality. […] This sleep disorder is associated with greater cognitive impairment and a higher risk of dementia. […] After 14 weeks, the MDS-UPDRS total score dropped by 10.98 points (indicating an easing in disease severity) in the high-dose group and rose by 3.53 points in the placebo group. This represented an adjusted mean improvement of 14.51 points—surpassing the established, clinically meaningful 7.1 point-cut-off—and a relative improvement of 18.9% over 14 weeks. […]

Series [2] has as its system patients with Parkinson's Disease Dementia (PDD). Put plainly: Phase 2 ANAVEX2-73-PDD-001 study, randomized, double blind, placebo-controlled, oral capsules once daily for 14 weeks. The series is classed as in vivo, human. As for the experimental part:
In order to assess the safety, tolerability and efficacy of ANAVEX®2-73 (blarcamesine) oral capsules in treating cognitive impairment in patients with Parkinson's Disease with Dementia (PDD), a phase 2 study, coded “ANAVEX®2-73-PDD-001 study” (FIG. 1), was conducted. The study was multi-center, randomized, double blind, placebo-controlled, parallel group with 3-arm. The study included a 2-week Screening/Baseline Observation Period and a 14-week Treatment Period (including a 2 week Titration Period), and a 2-week Safety Follow-Up Period. A total of 132 patients were enrolled in the study and were randomly assigned to three testing arms (FIG. 1). In ANAVEX2-73 High Dose arm, 44 patients were given oral capsules of ANAVEX2-73 once daily in an escalating dose of 10 mg, 20 mg, 30 mg and 50 mg. In ANAVEX2-73 Mid Dose arm, 44 patients were given oral capsules of ANAVEX2-73 once daily in an escalating dose of 10 mg, 20 mg, and 30 mg. In placebo group, 44 patients were given placebo capsules. Outcome measures included Cognitive Drug Research (CDR) Computerized Assessment System on Continuity of Attention; Change from Baseline to End of Treatment in Continuity of Attention as measured by Cognitive Drug Research (CDR) Computerized Assessment System Continuity of Attention; Number of participants with treatment-related adverse events as assessed by CTCAE v4.0 [Time Frame: 14 weeks]; Assessment of the safety and tolerability of ANAVEX2-73 compared to placebo; MDS-UPDRS Part III Total Score (Motor Scores); Change from baseline to End of Treatment as measured by MDS-UPDRS Part III Total Score (Motor Scores); SDS-CL-25 [Time Frame: 14 weeks]; Incidence of sleep disorders symptoms (SDS-CL-25); and DNA/RNA Sequencing.
The trial enrolled 132 adults, ages 50-85, with PDD, and was successfully concluded in September 2020. Participants, recruited at multiple sites in Spain and Australia, were randomly assigned to one of two doses groups (with an escalating ANAVEX 2-73 dose up to 30 or 50 mg oral capsules) or to a placebo, once daily for 14 weeks (see FIG. 1 for details). The trial's main goals were to assess the therapy's safety and changes in patients' cognitive function, measured using the cognitive drug research computerized assessment system—a test that looks at multiple cognitive skills, such as choice reaction time (choosing between similar objects), vigilance, and episodic memory (remembering new personal experiences or shared information). Secondary goals included changes in patients' motor abilities—assessed with the Movement Disorders Society Unified Parkinson's Disease Rating Scale (MDS-UPDRS) Part III—and sleep quality. […] This sleep disorder is associated with greater cognitive impairment and a higher risk of dementia. […]

For series [3] the test system is unchanged. As to conditions: previously reported results; cited from earlier work.
The subject of series [4] is gene clusters (Cluster 1, Cluster 2) of neurodegenerative pathways. Put plainly: Whole Blood Transcriptomics Analysis (RNAseq) of PDD patients, baseline vs Week 14, WGCNA gene clusters and pathway analysis. The series is classed as in vivo, human. As for the experimental part: In order to gain insights into ANAVEX 2-73 response pathways, during the Phase 2 study, patients' DNA and RNA sequencing were analyzed. Transcriptomic samples of 65 patients enrolled in either High Dose or Mid Dose arms were collected at baseline and at the end of treatment (Week 14). The expression of 14,150 genes was measured. No transformation was applied to the TPM values. Values associated with a with RIN≤4.0 were discarded. The actual dose of ANAVEX 2-73 (blarcamesine) that was given to each patient during the trial was assessed and integrated into the database. […]
The genes were clustered together using WGCNA, starting from their correlation of TPM expression values across samples. […] For each cluster, the contrast ActualDose, i.e. treated vs placebo were evaluated across all timepoints. […] The ratio between cluster size and number of pathways was calculated, and top 2 clusters were retained for further Analysis. […] Known interactions between the genes of the cluster were assessed using STRING database with the parameters of Edge score >0.150, and no text mining edges. […]
Whole Blood Transcriptomics Analysis (RNAseq) of patients with Parkinson's disease dementia (PDD) was performed for the ANAVEX®2-73-PDD-001 study (FIG. 1) at two timepoints: Baseline and Week 14 (end of trial). All available RNA samples with […] (RNA integrity number, using 130 samples) were analyzed. […]

T1 sequence (Q99720 whole entry, species assumed): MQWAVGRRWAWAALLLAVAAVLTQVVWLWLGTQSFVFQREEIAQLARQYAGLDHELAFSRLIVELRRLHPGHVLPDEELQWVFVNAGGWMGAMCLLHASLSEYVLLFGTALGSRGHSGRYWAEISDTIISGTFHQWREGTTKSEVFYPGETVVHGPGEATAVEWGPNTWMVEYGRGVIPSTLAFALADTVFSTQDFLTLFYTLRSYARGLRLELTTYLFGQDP

On to `CN(C)CC1CCOC1(c1ccccc1)c1ccccc1.Cl` (centres unmarked) [ANAVEX 2-73, tetrahydro-N, N-dimethyl-2,2-diphenyl-3-furanmethanamine hydrochloride], for which, in series [1], the “Direct occupancy at SIGMAR1” value is “has been established”. Moreover, the SIGMAR1 levels entry in the series on SIGMAR1 is “significant increase in SIGMAR1 levels”. Moreover, the “Cognitive and sleep benefits, current trial data” value in series [2] (data obtained from the current trial) is “confirmed these cognitive and sleep benefits”. Also, in series [2] (high dose (50 mg), 14 weeks, clinically meaningful cut-off 7.1 points), the “MDS-UPDRS total score, adjusted mean improvement vs placebo” value is on record as 14.51 points. Also, the “MDS-UPDRS total score, relative improvement” value in series [2] (high dose (50 mg), over 14 weeks) is on record as 18.9%. The “MDS-UPDRS total score, drop from baseline (easing in disease severity)” value in series [2] (high-dose group (50 mg), after 14 weeks) was determined as 10.98 points. Further, in series [3], the Cognitive skills entry is given as “significantly improved several cognitive skills”, the “REM sleep behavior disorder” value is recorded as “lessened REM sleep behavior disorder” and the Safety result is recorded as “generally safe”. In addition, the “Expression of both identified gene clusters, treated patients compared to placebo” value in series [4] (after 14 weeks of treatment) is listed as “up-regulated”. Moreover, the “Dysregulations of Cluster 1 and Cluster 2, link to dose” value in series [4] (linear mixed effect model, Dunnett's test) was “significantly linked to the highest dose”.

The record behind these values is patent US20240417798A1, “THERAPY SELECTION AND TREATMENT OF NEURODEGENERATIVE DISORDERS” (Anavex Life Sciences Corp., priority 2021, published 2024).
